Converted amounts (≈) assume the structure as drawn.
What was measured:
Aspergillus niger = test: minimum inhibitory concentration (MIC), agar dilution; type: cell-based; settings: ATCC 16404; malt yeast agar
Description: (§1) The minimum inhibitory concentration (MIC) for the compound of Example 19, i.e., (2-nitrophenyl)-iodonium 2,2-dimethyl-4,6-dioxo-1,3-dioxan-5-ylide was determined for 9 bacteria (using nutrient agar) and 5 yeast and fungi (using malt yeast agar). A one percent solution of this test compound (i.e., the compound of Example 19) was prepared in a mixture of acetone-water. Nutrient agar was prepared at pH 6.8 using deionized water according to standard Difco procedures. Malt yeast agar was prepared by adding 3 g Bacto yeast extract and 42 g Bacto Malt agar per liter of deionized water. The agar (nutrient agar when testing with bacteria and malt yeast agar when testing with yeast and fungi) was dispensed in 30 mL aliquots into 25×200 millimeter (mm) test tubes, capped and autoclaved for 15 min at 115° C. The test tubes containing the agar were cooled in a water bath until the temperature of the agar was 48° C. and then an appropriate amount of the one percent solution of the test compound was added (except in the controls where no test compound was added with the acetone-water) to the respective test tubes so that final concentrations of 500, 250, 100, 50, 25, 10, 5, 2.5, 1.0 and 0 parts per million (ppm) of the test compound in the agar were obtained. The agar solutions were each mixed and poured into individual petri plates so that each petri plate contained agar having a known concentration of test compound dispersed therein. After drying for 24 hr, the petri plates were inoculated with bacteria when the petri plates contained nutrient broth agar or with fungi and yeast when the petri plates contained malt yeast agar.
(§2) The petri plates were incubated at 30° C. for 48 hr and then read to determine if the test compound (i.e., the compound of Example 19) which was incorporated into the agar prevented growth of the respective bacteria. The minimum inhibitory concentration (MIC) for each bacteria was defined as the lowest concentration of the test compound which prevented growth of that bacteria.
(§3) The inoculation with the fungi and yeast was accomplished as follows. Cultures of fungi and yeast were incubated for 7 days on malt yeast agar at 30° C. These cultures were used to prepare suspensions by the following procedure. A suspension of each organism was prepared by adding 10 mL of sterile saline and 10 microliters […] of Triton ×100 to the slant. The sterile saline/Triton ×100 solution was then agitated with a sterile swab to suspend the microorganism grown on the slant. Each resulting suspension was diluted into sterile saline (1 part suspension: 9 parts sterile saline). […] The petri plates were incubated at 30° C. and read after 48 hr for yeast and 72 hr for fungi.

Penicillium chrysogenum = test: as above; type: cell-based; settings: ATCC 9480; malt yeast agar
Description: as §1, §2, §3

Trichoderma viride = test: as above; type: cell-based; settings: ATCC 8678; malt yeast agar
Description: as §1, §2, §3

Candida albicans = test: as above; type: cell-based; settings: ATCC 10231; malt yeast agar
Description: as §1, §2, §3

[1] = test system: bacteria listed in Table I, Klebsiella oxytoca, Enterobacter gergoviae, Pseudomonas putida #1, and Pseudomonas putida #2; test: hand creme preservation test
Description: Fifty gram aliquots of the latex were placed in sterile bottles and one hundred gram aliquots of the diluted cutting oil were placed in 250-mL Erlenmeyer flasks. An appropriate amount of a fresh 1 percent stock solution of (2-nitrophenyl)-iodonium 2,2-dimethyl-4,6-dioxo-1,3-dioxan-5-ylide in acetone-water was added to achieve the desired final concentrations (see Tables 5 and 6). A small portion of the respective latex or cutting oil preparation was then streaked onto Tryptic Soy Agar (TSA) petri plates using sterile cotton swabs to determine whether the preparations were sterile. If the particular preparation was sterile, it was then inoculated with an appropriate volume (0.1 mL for the latex and 0.2 mL for the cutting oil) of a mixture of equal aliquots of 24 hr cultures of each of the bacterial organisms listed in Table 1 (not the fungi and yeast). The latex samples were incubated at 30° C. and the cutting oils were agitated on a rotary shaker at room temperature. After 24 hr, all samples were again streaked on TSA. All plates were then incubated at 30° C. for 48 hr and then rated 1 to 10 according to the growth rating system described in Table 4.
The results from this first set of streaks after inoculation are listed in the columns labeled streak number 1 in Tables 5 and 6. Samples with a rating of 3 or less from streak number 1 were reinoculated as described for the first inoculation above. Samples with a rating of 4 or greater were not reinoculated. After another 24 hr all samples were again restreaked on TSA agar. The results from these second streaks were labeled streak number 2 in Tables 5 and 6. Samples were reinoculated and restreaked in this fashion for a maximum of 10 streaks. Any samples with two streaks in a row with a ten rating were not restreaked again.
The ingredients of the hand creme, hand lotion, and protein shampoo are listed in Tables 7, 8 and 9, respectively. In the cosmetic preservative procedures, the stock solution of (2-nitrophenyl)-iodonium 2,2-dimethyl-4,6-dioxo-1,3-dioxan-5-ylide) was made in dimethylformamide (DMF)/water solution. In addition to the bacteria listed in Table I, the following bacteria were also included in the inocula: Klebsiella oxytoca, Enterobacter gergoviae, Pseudomonas putida #1, and Pseudomonas putida #2.

[2] = test system: Selenastrum capricornutum; test: algaecide test, inhibition of growth; type: cell-based; settings: 96 hr incubation, read-out: growth of the algae, Percent of Control
Description: Using a Coulter Counter, the growth of this algea was measured after 96 hr incubation with various levels of biocide, i.e., (2-nitrophenyl)-iodonium 2,2-dimethyl-4,6-dioxo-1,3-dioxan-5-ylide.

For `CC1(C)OC(=O)[C-]([I+]c2ccccc2[N+](=O)[O-])C(=O)O1` [Example 19, (2-Nitrophenyl)-iodonium 2,2-dimethyl-4,6-dioxo-1,3-dioxan-5-ylide], the MIC (Aspergillus niger) was 250 µg/mL (≈ 639 µM), the MIC (Penicillium chrysogenum) was 100 µg/mL (≈ 256 µM) and the MIC (Trichoderma viride) was 250 µg/mL (≈ 639 µM). For the same compound, the MIC (Candida albicans) was 100 µg/mL (≈ 256 µM), the growth rating ([1]; 10 ppm, streak 1) was 1 (0) and the growth rating ([1]; 10 ppm, streak 2) was 1 (0). The growth rating ([1]; 10 ppm, streak 3) was 1 (0), the growth rating ([1]; 10 ppm, streak 4) was 1 (0) and the growth rating ([1]; 10 ppm, streak 5) was 1 (0). For the same compound, the growth rating ([1]; 10 ppm, streak 6) was 5 (26-50), the growth rating ([1]; 10 ppm, streak 7) was 1 (0) and the growth rating ([1]; 10 ppm, streak 8) was 8 (210-300). The growth rating ([1]; 10 ppm, streak 9) was 1 (0), the growth rating ([1]; 10 ppm, streak 10) was 7 (101-200) and the growth rating ([1]; 50 ppm, streak 1) was 1 (0). The growth rating ([1]; 50 ppm, streak 2) was 1 (0), the growth rating ([1]; 50 ppm, streak 3) was 1 (0) and the growth rating ([1]; 50 ppm, streak 4) was 1 (0). For the same compound, the growth rating ([1]; 50 ppm, streak 5) was 1 (0), the growth rating ([1]; 50 ppm, streak 6) was 1 (0) and the growth rating ([1]; 50 ppm, streak 7) was 1 (0). For the same compound, the growth rating ([1]; 50 ppm, streak 8) was 1 (0), the growth rating ([1]; 50 ppm, streak 9) was 1 (0) and the growth rating ([1]; 50 ppm, streak 10) was 7 (101-200). The growth rating ([1]; 100 ppm, streak 1) was 1 (0), the growth rating ([1]; 100 ppm, streak 2) was 1 (0) and the growth rating ([1]; 100 ppm, streak 3) was 1 (0). The growth rating ([1]; 100 ppm, streak 4) was 1 (0), the growth rating ([1]; 100 ppm, streak 5) was 1 (0) and the growth rating ([1]; 100 ppm, streak 6) was 1 (0). For the same compound, the growth rating ([1]; 100 ppm, streak 7) was 1 (0), the growth rating ([1]; 100 ppm, streak 8) was 1 (0) and the growth rating ([1]; 100 ppm, streak 9) was 4 (11-25). For the same compound, the growth rating ([1]; 100 ppm, streak 10) was 7 (101-200), the activity at 0.01 ppm ([2]; 0.01 ppm) was 77% and the activity at 0.1 ppm ([2]; 0.1 ppm) was 2.4%. For the same compound, the activity at 1 ppm ([2]; 1.0 ppm) was 0.65%, the activity at 10 ppm ([2]; 10 ppm) was 0.59% and the activity at 32 ppm ([2]; 32 ppm) was 0.53%.
